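Results reflect a 48-hour exposure of cells in 96-well plates to compound at five concentrations. Here, GI50 denotes the concentration required for 50% inhibition of growth. TGI is the concentration that stops growth completely.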
Legend:
Test in all cases: NCI tumour cell line growth inhibition, 48 h
[1] = test system: SF-268 CNS
[2] = test system: TK-10 renal
[3] = test system: OVCAR-5 ovarian
[4] = test system: SW-620 colon
[5] = test system: NCI/ADR-RES ovarian
[6] = test system: NCI-H23 lung
[7] = test system: MDA-MB-468 breast
[8] = test system: HL-60(TB) leukemia
[9] = test system: PC-3 prostate
[10] = test system: M14 melanoma
[11] = test system: KM12 colon
[12] = test system: LOX IMVI melanoma
[13] = test system: SNB-19 CNS
[14] = test system: SK-MEL-5 melanoma
[15] = test system: T-47D breast
[16] = test system: U251 CNS
[17] = test system: NCI-H522 lung
[18] = test system: MALME-3M melanoma
[19] = test system: CAKI-1 renal
[20] = test system: MDA-MB-231 breast
[21] = test system: IGROV1 ovarian
[22] = test system: SR leukemia
[23] = test system: SK-MEL-28 melanoma
[24] = test system: SNB-75 CNS
[25] = test system: SF-295 CNS
[26] = test system: A498 renal
[27] = test system: BT-549 breast
[28] = test system: HOP-92 NSCLC
[29] = test system: SF-539 CNS
[30] = test system: MDA-MB-435
[31] = test system: SN12C renal
[32] = test system: CCRF-CEM leukemia
[33] = test system: MOLT-4 leukemia
[34] = test system: 786-0 renal
[35] = test system: DU-145 prostate
[36] = test system: UO-31 renal
[37] = test system: SK-MEL-2 melanoma
[38] = test system: ACHN renal
[39] = test system: SK-OV-3 ovarian
[40] = test system: HS 578T breast
[41] = test system: HCC-2998 colon
[42] = test system: K-562 leukemia
[43] = test system: EKVX NSCLC
[44] = test system: UACC-62 melanoma
[45] = test system: OVCAR-4 ovarian
[46] = test system: NCI-H460 lung
[47] = test system: UACC-257 melanoma
[48] = test system: HOP-62 NSCLC
[49] = test system: NCI-H226 lung

Structure (SMILES): C=C(C)[C@@H]1CC[C@]2(C)[C@H](CC=C3[C@@H]4CC(C)(C)CC[C@]4(C(=O)N4CCOCC4)CC[C@]32C)[C@@]1(C)CCCN
- GI50 [1]: 1980 nM
- TGI [1]: 6220 nM
- GI50 [2]: 1640 nM
- TGI [2]: 4360 nM
- GI50 [3]: 1380 nM
- TGI [3]: 2690 nM
- GI50 [4]: 1190 nM
- TGI [4]: 2270 nM
- GI50 [5]: 1440 nM
- TGI [5]: 2770 nM
- GI50 [6]: 1310 nM
- TGI [6]: 2450 nM
- GI50 [7]: 1200 nM
- TGI [7]: 2330 nM
- GI50 [8]: 1000 nM
- TGI [8]: 3320 nM
- GI50 [9]: 1490 nM
- TGI [9]: 3870 nM
- GI50 [10]: 1430 nM
- TGI [10]: 3250 nM
- GI50 [11]: 1350 nM
- TGI [11]: 2600 nM
- GI50 [12]: 1250 nM
- TGI [12]: 2260 nM
- GI50 [13]: 2120 nM
- TGI [13]: 6820 nM
- GI50 [14]: 1560 nM
- TGI [14]: 3470 nM
- GI50 [15]: 1860 nM
- TGI [15]: 4700 nM
- GI50 [16]: 1280 nM
- TGI [16]: 2390 nM
- GI50 [17]: 1340 nM
- TGI [17]: 2550 nM
- GI50 [18]: 1310 nM
- TGI [18]: 2380 nM
- GI50 [19]: 1230 nM
- TGI [19]: 2250 nM
- GI50 [20]: 1370 nM
- TGI [20]: 2430 nM
- GI50 [21]: 1560 nM
- TGI [21]: 2990 nM
- GI50 [22]: 407 nM
- TGI [22]: 3090 nM
- GI50 [23]: 1240 nM
- TGI [23]: 2280 nM
- GI50 [24]: 2000 nM
- TGI [24]: 7890 nM
- GI50 [25]: 1300 nM
- TGI [25]: 2400 nM
- GI50 [26]: 1410 nM
- TGI [26]: 3100 nM
- GI50 [27]: 9160 nM
- TGI [27]: 24000 nM
- GI50 [28]: 1250 nM
- TGI [28]: 2710 nM
- GI50 [29]: 1260 nM
- TGI [29]: 2280 nM
- GI50 [30]: 1220 nM
- TGI [30]: 2310 nM
- GI50 [31]: 1290 nM
- TGI [31]: 2440 nM
- GI50 [32]: 1330 nM
- TGI [32]: 3680 nM
- GI50 [33]: 1730 nM
- TGI [33]: 4620 nM
- GI50 [34]: 1180 nM
- TGI [34]: 2340 nM
- GI50 [35]: 1500 nM
- TGI [35]: 2960 nM
- GI50 [36]: 1350 nM
- TGI [36]: 3200 nM
- GI50 [37]: 1430 nM
- TGI [37]: 2960 nM
- GI50 [38]: 1340 nM
- TGI [38]: 2400 nM
- GI50 [39]: 7350 nM
- TGI [39]: 21300 nM
- GI50 [40]: 1400 nM
- TGI [40]: 2990 nM
- GI50 [41]: 1220 nM
- TGI [41]: 2250 nM
- GI50 [42]: 1960 nM
- TGI [42]: 73500 nM
- GI50 [43]: 1370 nM
- TGI [43]: 2880 nM
- GI50 [44]: 1560 nM
- TGI [44]: 3560 nM
- GI50 [45]: 1380 nM
- TGI [45]: 2690 nM
- GI50 [46]: 1190 nM
- TGI [46]: 2250 nM
- GI50 [47]: 1290 nM
- TGI [47]: 2610 nM
- GI50 [48]: 1390 nM
- TGI [48]: 2830 nM
- GI50 [49]: 2780 nM
- TGI [49]: 16500 nM
